Experiments:
[1] = tested on: PBMCs from TG allergic donors; assay: IL-5 ELISPOT of TG extract-expanded PBMCs from TG allergic donors (peptide pools, single peptides, TG extract); assay type: cell-based, human
Description: Each donor was recruited following Institutional Review Board approval (Federal Wide Assurance number 00000032) and informed consent and assigned a study identification number. Donors were tested for allergen reactivity by skin prick tests to extracts from 32 common allergens. TG allergic donors were identified as having a skin reaction with a wheal of 5 mm in diameter to TG and a clinical history consistent with seasonal grass pollen allergy. Donors that had received specific immunotherapy were excluded. Non-allergic donors were identified as having negative skin prick tests to all allergens and no clinical history of allergy.
PBMCs were isolated by density gradient centrifugation from one unit of blood (˜450 ml) and cryo-preserved as described previously (12). For in vitro expansions, PBMCs were thawed and cultured in RPMI 1640 (Ω Scientific, Tarzana, Calif.) supplemented with 5% human AB serum (Cellgro, Herndon, Va.) at a density of 2×10^6 cells/ml in 24-well plates (BD Biosciences, San Jose, Calif.) and stimulated with TG pollen extract ([…]) (Greer, Lenoir, N.C.). Cells were kept at 37° C., 5% CO2 and additional IL-2 and IL-7 (10 U/ml, eBioscience, San Diego, Calif.) was added every 3 d after initial antigenic stimulation. On day 14, cells were harvested and screened for reactivity against TG-specific peptide pools (16-25 peptides/pool, averaging 20 peptides/pool). On day 17, peptides from positive pools were tested individually to identify the reactive epitopes.
The production of IL-5 from cultured PBMCs in response to antigen stimulation was measured by ELISPOT as described previously (12). Briefly, 1×10^5 cells/well were incubated with peptide, peptide pool or TG extract (10 μg/ml, 5 μg/ml and 50 μg/ml, respectively). After 24 h, cells were removed and plates were incubated with 2 μg/ml biotinylated anti-human IL-5 Ab (Mabtech) at 37° C. After 2 h, plates were washed and avidin-peroxidase-complex was added (Vector Laboratories, Burlingame, Calif.) for 1 h at RT. Peroxidase-conjugated spots were developed with 3-amino-9-ethylcarvazole solution (Sigma-Aldrich, St. Louis, Mo.). Criteria for peptide pool positivity were 100 SFCs/106 PBMCs, p 0.05, and a stimulation index (SI) 2. Criteria for individual peptides were the same except a minimum of 20 SFCs was counted as positive.

[2] = tested on: human IgE; assay: 2D gel immunoblot of TG extract with serum pool from 8 TG-allergic donors, IgE reactivity; assay type: binding
Description: (§1) 2D DIGE (Difference Gel Electrophoresis) analysis. The complete 2D DIGE analysis was performed by Applied Biomics (Hayward, Calif., US). Briefly, TG extract was run on two 2D gels (3-10 pH range, 12% SDS-acrylamide gel), one was Coomassie blue stained, the other was blotted onto a nitrocellulose membrane. The membrane was then incubated with 5% dried milk in PBS/0.05% Tween to block non-specific binding and subsequently probed with a serum pool from 8 TG-allergic individuals at a dilution of 1:250. IgE and IgG binding was detected using goat anti-human IgE and rabbit anti-human IgG (Sigma-Aldrich, St. Louis, Mo.) and visualized using Cy2-conjugated donkey anti-goat IgG and Cy5-conjugated donkey […] IgG antibodies (Biotium, Hayward, Calif.).
(§2) Mass spectral protein identification was performed by Applied Biomics (Hayward, Calif., US). Briefly, spots of interest were selected from the 2D blot and the corresponding spots were identified on the stained SDS gel and cut out, washed several times to remove staining dye and other inhibitory chemicals. The spots were then dried to absorb maximum digestion buffer. Dried 2D gel spots were rehydrated in digestion buffer containing trypsin. Proteins were digested in-gel at 37° C. and then extracted from the gel with TFA extraction buffer. Subsequently the peptides were desalted using C-18 Zip-tips (Millipore) and mixed with CHCA matrix (alpha-cyano-4-hydroxycinnamic acid) and spotted into wells of a MALDI plate. Mass spectra of the peptides in each sample were obtained using an Applied Biosystems Proteomics Analyzer. The spectra were compared to the amino acid sequences encoded by putative ORFs from the de novo assembled TG pollen transcripts. […] The amino acid sequences encoded by these ORFs were clustered using a custom script at a sequence similarity threshold of 90% to group together highly similar protein sequences. These sequences are encoded by different transcripts from the current assembly, which could arise from splice variants, allelic variation between cells of TG pollen, and from gene families with multiple members. Amino acid sequences that form one cluster are assigned one putative protein ID (Table 1).

[3] = tested on: human IgG; assay: 2D gel immunoblot of TG extract with serum pool from 8 TG-allergic donors, IgG reactivity; assay type: binding
Description: as §1, §2

[4] = tested on: PBMCs from TG allergic donors; assay: IFNg ELISPOT of TG extract-expanded PBMCs from TG allergic donors (single peptides); assay type: cell-based, human; settings: T cell recognition in TG allergic patients; for Total response IFNg Events: number of positive events
[5] = tested on: PBMCs from TG allergic donors; assay: as above; assay type: cell-based, human; settings: for Total response IFNg Events: number of positive response events
[6] = tested on: PBMCs from TG allergic donors; assay: as above; assay type: cell-based, human; settings: T cell recognition in TG allergic patients; for Total response IFNg Events: number of response events
[7] = tested on: PBMCs from TG allergic donors; assay: as above; assay type: cell-based, human; settings: number of positive response events in TG allergic patients
[8] = IL-5, number of positive response events
[9] = T cell recognition in TG allergic patients, number of positive events
[10] = E+ / E− part of the cell, reactivity of the parent antigen
[11] = IgE reactivity of the parent TG antigen
[12] = G+ / G− part of the cell, reactivity of the parent antigen
[13] = IgG reactivity of the parent TG antigen
[14] = T cell recognition in TG allergic patients
[15] = T cell recognition in TG allergic patients, number of response events
[16] = IgE reactivity (E+/E−) of the source antigen of the peptide
[17] = IgG reactivity (G+/G−) of the source antigen of the peptide
[18] = number of positive response events in TG allergic patients
[19] = reactivity of the parent antigen (TG protein) from which the peptide is predicted, E+/E−
[20] = reactivity of the parent antigen (TG protein) from which the peptide is predicted, G+/G−

| Substance | Total response IL-5 Events [1, 8] | Total response IL-5 Events [1, 9] | Antibody reactvity IgE/IgG (IgE part) [2, 10] | Antibody reactvity IgE/IgG (IgE part) [2, 11] | Antibody reactvity IgE/IgG (IgG part) [3, 12] | Antibody reactvity IgE/IgG (IgG part) [3, 13] | Total response IFNg Events [4] | Total response IFNg Events [5] | Total response IL-5 SFC ([1]; IL-5, total SFC) | Total response IL-5 SFC [1, 14] | further results |
| --- | --- | --- | --- | --- | --- | --- | --- | --- | --- | --- | --- |
| 83 (TIVASGIENMKIFTR; Phleum pratense) [Peptide 83] | 0 | 0 | E+ | E+ | G+ | G+ | 1 | 1 |  |  | Total response IFNg SFC [4]: 293 SFC; Total response IFNg SFC [5]: 293 SFC |
| 141 (LLGYLLWVVAIRRPR; Phleum pratense) [Peptide 141] | 1 | 1 | E+ | E+ | G+ | G+ | 0 | 0 | 110 SFC | 110 SFC |  |
| 252 (SAPALRILRSFPSHS; Phleum pratense) [Peptide 252] | 1 |  | E+ |  | G− |  |  | 1 | 97 SFC | 97 SFC | Total response IL-5 Events [1, 15]: 1; Antibody reactivity IgE/IgG: IgE [2, 16]: E+; Antibody reactivity IgE/IgG: IgG [3, 17]: G−; Total response IFNg SFC [6]: 143 SFC; Total response IFNg Events [6]: 1; Total response IFNg SFC [5]: 143 SFC |
| 350 (LKDGSTYSFRFSFIV; Phleum pratense) [Peptide 350] | 1 | 1 | E+ | E+ | G+ | G+ | 0 | 0 | 20 SFC | 20 SFC |  |
| 375 (EEAASTLPGLSSSTL; Phleum pratense) [Peptide 375] |  |  |  |  |  |  |  |  |  |  | Total response IL-5 Events [1, 15]: 0; Antibody reactivity IgE/IgG: IgE [2, 16]: E−; Antibody reactivity IgE/IgG: IgG [3, 17]: G+; Total response IFNg Events [6]: 0 |
| 411 (SSTRGWCSRRRAGRG; Phleum pratense) [Peptide 411] | 0 |  | E− |  | G+ |  |  | 0 |  |  | Total response IL-5 Events [1, 18]: 0; Antibody reactivity IgE/IgG: IgE [2, 19]: E−; Antibody reactivity IgE/IgG: IgG [3, 20]: G+; Total response IFNg Events [7]: 0 |
| 455 (KRPPRCCQDLVVLPL; Phleum pratense) [Peptide 455] |  |  |  |  |  |  |  |  |  |  | Total response IL-5 Events [1, 18]: 0; Antibody reactivity IgE/IgG: IgE [2, 19]: E−; Antibody reactivity IgE/IgG: IgG [3, 20]: G+; Total response IFNg Events [7]: 0 |
